Results from patent publication US7626031B2, “Substituted 3-(diarylmethylene)indolin-2-ones and methods of their use” (Symphony Evolution, Inc., priority 2002, dated 2009).

How the values were obtained:
[1] = molecular target: Fyn (Homo sapiens, UniProt P06241); test: Kinase assay, Fyn; assay type: biochemical
Procedure: (§1) Kinase activity and compound inhibition are investigated using one or more assay formats. The ATP concentrations for each assay are selected to be close to the Michaelis-Menten constant (KM) for each individual kinase. Dose-response experiments are performed at 10 different inhibitor concentrations in a 384-well plate format. […] Exemplary kinase assays are described below. KDR Assay

[2] = molecular target: Flt-1 (Homo sapiens, UniProt P17948); test: Kinase assay, Flt-1 (33P-ATP incorporation or luciferase-coupled ATP consumption); assay type: biochemical; settings: read-out: Flt1 IC50
How it was run: (§2)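 Kinase activity measured either by γ-33P ATP incorporation into immobilized substrate (MBP or pEY) with scintillation counting, or by luciferase-based ATP consumption with pEY. Enzyme 10 or 20 nM; ATP near each kinase's KM (e.g. 10 or 30 μM); 1 h at room temperature, 1% DMSO, 10-point dose-response.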

[3] = molecular target: PDGFR alpha (Homo sapiens, UniProt P16234); test: Kinase assay, PDGFR alpha (33P-ATP incorporation or luciferase-coupled ATP consumption); assay type: biochemical; settings: read-out: PDGF-R-A IC50
Sequence of PDGFR alpha (P16234 24-1089): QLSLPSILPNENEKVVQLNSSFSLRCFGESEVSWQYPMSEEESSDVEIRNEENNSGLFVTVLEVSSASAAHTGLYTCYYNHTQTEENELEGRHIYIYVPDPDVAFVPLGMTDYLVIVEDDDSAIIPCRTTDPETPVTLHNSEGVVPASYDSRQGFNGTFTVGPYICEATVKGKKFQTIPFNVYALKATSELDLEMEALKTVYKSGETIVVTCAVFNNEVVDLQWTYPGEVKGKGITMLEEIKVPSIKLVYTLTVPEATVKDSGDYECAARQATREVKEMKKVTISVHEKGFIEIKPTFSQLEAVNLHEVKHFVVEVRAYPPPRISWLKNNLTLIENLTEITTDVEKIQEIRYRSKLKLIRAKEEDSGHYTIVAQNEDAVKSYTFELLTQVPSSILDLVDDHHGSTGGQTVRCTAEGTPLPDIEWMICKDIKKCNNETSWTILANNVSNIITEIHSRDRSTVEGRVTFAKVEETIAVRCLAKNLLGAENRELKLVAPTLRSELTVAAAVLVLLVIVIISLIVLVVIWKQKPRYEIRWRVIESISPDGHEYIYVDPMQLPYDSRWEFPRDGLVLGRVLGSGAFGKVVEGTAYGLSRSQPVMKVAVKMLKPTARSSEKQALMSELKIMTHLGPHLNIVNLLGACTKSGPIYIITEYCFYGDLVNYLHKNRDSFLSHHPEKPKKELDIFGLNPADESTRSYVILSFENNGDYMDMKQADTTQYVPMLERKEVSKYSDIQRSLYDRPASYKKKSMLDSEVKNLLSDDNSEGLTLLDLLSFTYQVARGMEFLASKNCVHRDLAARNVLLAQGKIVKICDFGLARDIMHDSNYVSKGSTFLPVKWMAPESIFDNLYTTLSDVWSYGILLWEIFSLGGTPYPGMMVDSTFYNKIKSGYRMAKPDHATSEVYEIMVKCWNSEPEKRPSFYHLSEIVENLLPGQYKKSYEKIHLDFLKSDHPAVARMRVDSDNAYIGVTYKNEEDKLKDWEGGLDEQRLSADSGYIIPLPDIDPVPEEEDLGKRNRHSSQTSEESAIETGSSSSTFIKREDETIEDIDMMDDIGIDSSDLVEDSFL
How it was run: as §2

[4] = molecular target: IRK (Homo sapiens, UniProt P06213); test: Kinase assay, IRK; assay type: biochemical
Procedure: as §1

[5] = molecular target: c-Kit kinase (Homo sapiens, UniProt P10721); test: c-Kit AlphaScreen kinase assay; assay type: biochemical
Sequence of c-Kit kinase (P10721 26-976): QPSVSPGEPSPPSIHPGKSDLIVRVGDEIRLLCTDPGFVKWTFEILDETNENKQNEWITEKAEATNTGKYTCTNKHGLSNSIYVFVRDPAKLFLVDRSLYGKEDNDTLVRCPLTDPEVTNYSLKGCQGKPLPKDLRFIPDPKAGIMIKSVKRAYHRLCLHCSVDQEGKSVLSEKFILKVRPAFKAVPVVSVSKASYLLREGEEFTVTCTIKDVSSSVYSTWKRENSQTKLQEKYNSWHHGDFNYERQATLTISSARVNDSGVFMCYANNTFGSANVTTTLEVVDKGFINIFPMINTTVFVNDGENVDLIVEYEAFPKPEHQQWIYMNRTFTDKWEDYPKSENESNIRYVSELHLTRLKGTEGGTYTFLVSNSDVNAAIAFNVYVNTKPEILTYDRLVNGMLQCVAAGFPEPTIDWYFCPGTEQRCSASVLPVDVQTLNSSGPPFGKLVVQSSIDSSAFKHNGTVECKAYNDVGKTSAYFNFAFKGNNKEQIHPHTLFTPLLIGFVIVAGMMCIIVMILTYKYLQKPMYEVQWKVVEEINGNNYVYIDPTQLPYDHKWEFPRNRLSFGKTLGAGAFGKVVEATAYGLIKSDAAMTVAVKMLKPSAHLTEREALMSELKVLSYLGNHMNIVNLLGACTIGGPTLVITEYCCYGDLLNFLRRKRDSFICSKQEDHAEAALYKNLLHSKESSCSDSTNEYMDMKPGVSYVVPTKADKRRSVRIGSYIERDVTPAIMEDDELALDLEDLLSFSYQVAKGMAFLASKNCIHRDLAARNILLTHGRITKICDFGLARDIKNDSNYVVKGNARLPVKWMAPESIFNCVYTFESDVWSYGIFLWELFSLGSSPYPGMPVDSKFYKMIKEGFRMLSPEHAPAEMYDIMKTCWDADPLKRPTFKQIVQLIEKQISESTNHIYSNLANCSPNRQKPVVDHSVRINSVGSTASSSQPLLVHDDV
Procedure: as §1
c-Kit biochemical activity was assessed using AlphaScreen™ (Perkin Elmer) technology, described above. Test compounds, ATP, biotinylated poly(Glu, Tyr) and c-Kit kinase were combined in a volume of 20 μL in a 384-well white, medium binding microtiter plate (Greiner). Reaction mixtures were incubated for 1 hr at ambient temperature. Reactions were quenched by addition of 10 uL of […] AlphaScreen bead suspension containing 75 mM Hepes, pH 7.4, 300 mM NaCl, 120 mM EDTA, 0.3% BSA and 0.03% Tween-20. After 16 hr incubation at ambient temperature plates were read using an AlphaQuest reader (Perkin Elmer).

[6] = molecular target: FGFR1 (Homo sapiens, UniProt P11362); test: Kinase assay, FGFR1 (33P-ATP incorporation or luciferase-coupled ATP consumption); assay type: biochemical
Sequence of FGFR1 (P11362 22-822, species assumed): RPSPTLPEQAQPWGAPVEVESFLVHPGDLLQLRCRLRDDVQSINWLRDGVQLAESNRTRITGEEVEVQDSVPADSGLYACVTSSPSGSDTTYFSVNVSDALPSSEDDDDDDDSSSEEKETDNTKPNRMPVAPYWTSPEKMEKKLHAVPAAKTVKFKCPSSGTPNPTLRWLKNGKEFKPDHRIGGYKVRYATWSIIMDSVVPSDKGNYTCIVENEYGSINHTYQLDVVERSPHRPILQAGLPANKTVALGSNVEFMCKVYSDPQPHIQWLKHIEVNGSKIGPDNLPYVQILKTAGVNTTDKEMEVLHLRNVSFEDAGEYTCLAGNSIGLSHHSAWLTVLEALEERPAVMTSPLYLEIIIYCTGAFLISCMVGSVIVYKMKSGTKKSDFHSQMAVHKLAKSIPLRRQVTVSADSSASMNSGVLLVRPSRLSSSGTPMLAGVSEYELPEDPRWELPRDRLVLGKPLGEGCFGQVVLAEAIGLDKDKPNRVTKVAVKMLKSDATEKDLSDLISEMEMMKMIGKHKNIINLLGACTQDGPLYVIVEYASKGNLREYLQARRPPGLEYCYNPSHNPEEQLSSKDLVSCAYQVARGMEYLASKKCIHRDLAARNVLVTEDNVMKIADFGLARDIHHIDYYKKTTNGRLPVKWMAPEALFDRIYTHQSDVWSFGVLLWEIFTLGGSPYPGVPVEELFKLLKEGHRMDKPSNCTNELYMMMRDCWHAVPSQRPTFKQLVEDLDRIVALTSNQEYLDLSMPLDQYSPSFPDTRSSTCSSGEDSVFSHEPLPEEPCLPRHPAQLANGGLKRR
How it was run: as §2

[7] = molecular target: T1, KDR (baculovirus expressed human KDR kinase domain D807-V1356) (Homo sapiens, UniProt P35968); test: biochemical
T1 construct: human KDR kinase domain D807-V1356; host or cells: baculovirus expression system
T1 sequence (P35968 807-1356): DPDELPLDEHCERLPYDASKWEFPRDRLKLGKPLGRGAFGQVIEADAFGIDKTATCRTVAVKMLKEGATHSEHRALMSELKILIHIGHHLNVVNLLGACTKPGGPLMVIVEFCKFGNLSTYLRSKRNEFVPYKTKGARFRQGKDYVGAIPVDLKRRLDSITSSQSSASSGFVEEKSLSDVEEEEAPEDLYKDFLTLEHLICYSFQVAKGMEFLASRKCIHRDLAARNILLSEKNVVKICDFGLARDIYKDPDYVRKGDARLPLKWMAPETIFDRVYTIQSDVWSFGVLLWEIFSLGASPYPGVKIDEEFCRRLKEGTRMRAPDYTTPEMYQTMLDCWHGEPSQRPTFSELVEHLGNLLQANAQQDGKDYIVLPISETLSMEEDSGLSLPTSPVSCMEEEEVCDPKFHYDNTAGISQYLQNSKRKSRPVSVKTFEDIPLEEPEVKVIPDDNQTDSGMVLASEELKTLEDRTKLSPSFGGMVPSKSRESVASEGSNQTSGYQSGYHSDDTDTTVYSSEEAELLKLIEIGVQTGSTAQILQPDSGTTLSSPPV
How it was run: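 Baculovirus human KDR kinase domain (D807–V1356) with ATP near its KM; 10-point dose-response, 4 h at ambient temperature. Activity taken as percent ATP remaining, detected by luciferase–luciferin chemiluminescence.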

[8] = molecular target: EphA2 (Homo sapiens, UniProt P29317); test: Kinase assay, EphA2 (33P-ATP incorporation or luciferase-coupled ATP consumption); assay type: biochemical
Sequence of EphA2 (P29317 24-976, species assumed): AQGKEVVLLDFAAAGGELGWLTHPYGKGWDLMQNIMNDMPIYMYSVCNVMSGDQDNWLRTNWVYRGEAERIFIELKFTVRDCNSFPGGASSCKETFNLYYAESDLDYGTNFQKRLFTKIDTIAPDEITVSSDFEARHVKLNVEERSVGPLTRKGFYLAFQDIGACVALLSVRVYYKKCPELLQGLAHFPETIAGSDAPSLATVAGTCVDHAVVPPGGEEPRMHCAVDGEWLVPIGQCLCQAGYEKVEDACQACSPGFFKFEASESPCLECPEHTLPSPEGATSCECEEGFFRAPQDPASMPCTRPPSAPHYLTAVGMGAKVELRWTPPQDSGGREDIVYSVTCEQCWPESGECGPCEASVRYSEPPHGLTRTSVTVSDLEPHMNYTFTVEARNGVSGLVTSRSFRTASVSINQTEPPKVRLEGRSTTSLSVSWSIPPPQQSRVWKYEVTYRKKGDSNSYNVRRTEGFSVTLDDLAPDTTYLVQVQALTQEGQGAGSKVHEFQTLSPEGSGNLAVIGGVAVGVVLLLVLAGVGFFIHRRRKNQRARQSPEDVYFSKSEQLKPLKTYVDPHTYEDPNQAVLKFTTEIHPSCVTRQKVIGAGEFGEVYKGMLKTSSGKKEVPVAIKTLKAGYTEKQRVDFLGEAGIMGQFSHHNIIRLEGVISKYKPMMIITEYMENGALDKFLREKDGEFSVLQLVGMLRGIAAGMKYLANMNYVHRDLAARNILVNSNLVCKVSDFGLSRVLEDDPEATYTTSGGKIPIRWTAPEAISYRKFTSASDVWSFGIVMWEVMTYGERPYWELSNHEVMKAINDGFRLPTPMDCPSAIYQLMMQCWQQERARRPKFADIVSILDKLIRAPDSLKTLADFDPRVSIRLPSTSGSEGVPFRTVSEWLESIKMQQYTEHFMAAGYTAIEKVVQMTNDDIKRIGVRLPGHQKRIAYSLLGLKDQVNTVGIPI
How it was run: as §2

[9] = molecular target: EGFR (Homo sapiens, UniProt P00533); test: Kinase assay, EGFR (33P-ATP incorporation or luciferase-coupled ATP consumption); assay type: biochemical
How it was run: as §2

Sequence of Fyn (P06241 whole entry, species assumed): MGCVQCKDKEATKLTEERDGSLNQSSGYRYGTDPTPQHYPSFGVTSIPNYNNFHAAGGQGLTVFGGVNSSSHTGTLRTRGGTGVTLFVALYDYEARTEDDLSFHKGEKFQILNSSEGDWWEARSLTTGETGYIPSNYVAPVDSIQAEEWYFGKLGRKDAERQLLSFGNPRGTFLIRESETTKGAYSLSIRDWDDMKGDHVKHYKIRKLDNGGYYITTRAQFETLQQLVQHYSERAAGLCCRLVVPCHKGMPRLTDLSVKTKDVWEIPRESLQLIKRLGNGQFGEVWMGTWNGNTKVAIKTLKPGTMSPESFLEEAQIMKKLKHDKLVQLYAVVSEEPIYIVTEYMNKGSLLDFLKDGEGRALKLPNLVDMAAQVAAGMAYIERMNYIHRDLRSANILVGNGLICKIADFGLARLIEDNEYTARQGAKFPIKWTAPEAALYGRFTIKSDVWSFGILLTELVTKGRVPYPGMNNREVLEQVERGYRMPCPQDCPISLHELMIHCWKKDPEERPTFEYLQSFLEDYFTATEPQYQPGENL

Compound | IC50 [1] | IC50 [2] | IC50 [3] | IC50 [4] | IC50 [5] | IC50 [6] | IC50 [7] | IC50 [8] | IC50 [9]
COCCN1CCC(Nc2ccc3c(c2)/C(=C(\c2cccc(F)c2)c2ncc[nH]2)C(=O)N3)CC1 [Entry 41, (3Z)-3-[(3-fluorophenyl)(1H-imidazol-2-yl)methylidene]-5-({1-[2-(methyloxy)ethyl]piperidin-4-yl}amino)-1,3-dihydro-2H-indol-2-one] | < 50 nM | 50 to 500 nM | < 50 nM | 500 to 5000 nM | 50 to 500 nM | < 50 nM | < 50 nM | 500 to 5000 nM | 50 to 500 nM
CCN1CCC(Nc2ccc3c(c2)/C(=C(\c2ccc(C)cc2)c2ncc[nH]2)C(=O)N3)CC1 [Entry 13, (3Z)-5-[(1-ethylpiperidin-4-yl)amino]-3-[1H-imidazol-2-yl(4-methylphenyl)methylidene]-1,3-dihydro-2H-indol-2-one] | < 50 nM | 50 to 500 nM | < 50 nM | 500 to 5000 nM | 50 to 500 nM | < 50 nM | < 50 nM | 50 to 500 nM | 50 to 500 nM
CCN1CCC(Nc2ccc3c(c2)/C(=C(\c2ccc(F)c(F)c2)c2ncc[nH]2)C(=O)N3)CC1 [Entry 54, (3Z)-3-[(3,4-difluorophenyl)(1H-imidazol-2-yl)methylidene]-5-[(1-ethylpiperidin-4-yl)amino]-1,3-dihydro-2H-indol-2-one] | < 50 nM |  | < 50 nM | > 5000 nM | 50 to 500 nM | < 50 nM | < 50 nM | 500 to 5000 nM | 500 to 5000 nM
CCN1CCC(Nc2ccc3c(c2)/C(=C(/c2ncc[nH]2)c2ccc(C(F)(F)F)cc2F)C(=O)N3)CC1 [Entry 100, (3Z)-5-[(1-ethylpiperidin-4-yl)amino]-3-[[2-fluoro-4-(trifluoromethyl)phenyl] (1H-imidazol-2-yl)methylidene]-1,3-dihydro-2H-indol-2-one] | < 50 nM |  | < 50 nM | 500 to 5000 nM | < 50 nM | < 50 nM | < 50 nM | 500 to 5000 nM | 50 to 500 nM
CCN1CCC(Nc2ccc3c(c2)/C(=C(/c2ncc[nH]2)c2ccccc2F)C(=O)N3)CC1 [Entry 107, (3Z)-5-[(1-ethylpiperidin-4-yl)amino]-3-[(2-fluorophenyl)(1H-imidazol-2-yl)methylidene]-1,3-dihydro-2H-indol-2-one] | < 50 nM |  | < 50 nM | 500 to 5000 nM | < 50 nM | < 50 nM | < 50 nM | 500 to 5000 nM | 50 to 500 nM
CCN1CCC(Nc2ccc3c(c2)/C(=C(\c2ccc(C(F)(F)F)c(F)c2)c2ncc[nH]2)C(=O)N3)CC1 [Entry 65, (3Z)-5-[(1-ethylpiperidin-4-yl)amino]-3-[[3-fluoro-4-(trifluoromethyl)phenyl](1H-imidazol-2-yl)methylidene]-1,3-dihydro-2H-indol-2-one] | < 50 nM |  | < 50 nM | > 5000 nM | 50 to 500 nM | < 50 nM | < 50 nM | 500 to 5000 nM | 50 to 500 nM
CCN1CCC(Nc2ccc3c(c2)/C(=C(/c2ncc[nH]2)c2ccc(F)cc2F)C(=O)N3)CC1 [Entry 112, (3Z)-3-[(2,4-difluorophenyl)(1H-imidazol-2-yl)methylidene]-5-[(1-ethylpiperidin-4-yl)amino]-1,3-dihydro-2H-indol-2-one] | < 50 nM |  | < 50 nM | 500 to 5000 nM | < 50 nM | < 50 nM | < 50 nM | 500 to 5000 nM | 50 to 500 nM
CCN1CCC(Nc2ccc3c(c2)/C(=C(\c2ccc(F)c(Cl)c2)c2ncc[nH]2)C(=O)N3)CC1 [Entry 53, (3Z)-3-[(3-chloro-4-fluorophenyl) (1H-imidazol-2-yl)methylidene]-5-[(1-ethylpiperidin-4-yl)amino]-1,3-dihydro-2H-indol-2-one] | < 50 nM |  | < 50 nM | > 5000 nM | < 50 nM | < 50 nM | < 50 nM | 500 to 5000 nM | 500 to 5000 nM
CCN1CCC(Nc2ccc3c(c2)/C(=C(\c2cccc(C(F)(F)F)c2)c2ncc[nH]2)C(=O)N3)CC1 [Entry 114, (3Z)-3-[(3-trifluoromethylphenyl)(1H-imidazol-2-yl)methylidene]-5-[(1-ethylpiperidin-4-yl)amino]-1,3-dihydro-2H-indol-2-one] | 50 to 500 nM |  | < 50 nM | > 5000 nM | 50 to 500 nM | 50 to 500 nM | < 50 nM | 500 to 5000 nM | 500 to 5000 nM
CCN1CCC(Nc2ccc3c(c2)/C(=C(/c2ncc[nH]2)c2cccc(F)c2F)C(=O)N3)CC1 [Entry 109, (3Z)-3-[(2,3-difluorophenyl)(1H-imidazol-2-yl)methylidene]-5-[(1-ethylpiperidin-4-yl)amino]-1,3-dihydro-2H-indol-2-one] | < 50 nM |  | < 50 nM | 500 to 5000 nM | < 50 nM | < 50 nM | < 50 nM | 500 to 5000 nM | 50 to 500 nM
CCN1CCC(Nc2ccc3c(c2)/C(=C(\c2ccc(F)c(Cl)c2)c2nc(C)c[nH]2)C(=O)N3)CC1 [Entry 105, (3Z)-3-[(3-chloro-4-fluorophenyl)(4-methyl-1H-imidazol-2-yl)methylidene]-5-[(1-ethylpiperidin-4-yl)amino]-1,3-dihydro-2H-indol-2-one] | < 50 nM |  | < 50 nM | 500 to 5000 nM | 50 to 500 nM | < 50 nM | < 50 nM | 500 to 5000 nM | 50 to 500 nM
CCN1CCC(Nc2ccc3c(c2)/C(=C(/c2nc(C)c[nH]2)c2ccc(C(F)(F)F)cc2F)C(=O)N3)CC1 [Entry 108, (3Z)-5-[(1-ethylpiperidin-4-yl)amino]-3-[[2-fluoro-4-(trifluoromethyl)phenyl] (4-methyl-1H-imidazol-2-yl)methylidene]-1,3-dihydro-2H-indol-2-one] | < 50 nM |  | < 50 nM | 500 to 5000 nM | < 50 nM | < 50 nM | < 50 nM | 500 to 5000 nM | 50 to 500 nM
CCN1CCC(Nc2ccc3c(c2)/C(=C(\c2ccc(F)c(F)c2)c2nc(C)c[nH]2)C(=O)N3)CC1 [Entry 104, (3Z)-3-[(3,4-difluorophenyl)(4-methyl-1H-imidazol-2-yl)methylidene]-5-[(1-ethylpiperidin-4-yl)amino]-1,3-dihydro-2H-indol-2-one] | < 50 nM |  | < 50 nM | > 5000 nM | 50 to 500 nM | < 50 nM | < 50 nM | 500 to 5000 nM | < 50 nM
